Test results reported in PubChem BioAssay (NCI).
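Tested at 5 concentrations; 48 h exposure; 96-well plates; endpoints linearly interpolated, else capped at highest concentration. GI50 is the concentration that inhibits growth by half. TGI: concentration producing complete growth inhibition.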 Where a SMILES comes first, the peptide text is derived from it. [ ]: non-standard residue; d: D form. Phe(4-Cl) = N[CH](Cc1ccc(Cl)cc1)C(=O)O

Key:
Assay in all cases: NCI anticancer screen, dose series, 48 h
CAKI-1 renal = system: CAKI-1 renal
K-562 leukemia = system: K-562 leukemia
DLD-1 colon = system: DLD-1 colon
CCRF-CEM leukemia = system: CCRF-CEM leukemia
A549 NSCLC = system: A549 NSCLC
MOLT-4 leukemia = system: MOLT-4 leukemia
DMS 273 small cell lung = system: DMS 273 small cell lung
OVCAR-5 ovarian = system: OVCAR-5 ovarian
T-47D breast = system: T-47D breast
PC-3 prostate = system: PC-3 prostate

Structure (SMILES) | TGI (CAKI-1 renal) [µM] | TGI (K-562 leukemia) [µM] | TGI (DLD-1 colon) [µM] | TGI (CCRF-CEM leukemia) [µM] | TGI (A549 NSCLC) [µM] | TGI (MOLT-4 leukemia) [µM] | TGI (DMS 273 small cell lung) [µM] | TGI (OVCAR-5 ovarian) [µM] | TGI (T-47D breast) [µM] | TGI (PC-3 prostate) [µM] | GI50 (CAKI-1 renal) [nM] | GI50 (K-562 leukemia) [nM] | GI50 (T-47D breast) [nM] | GI50 (CCRF-CEM leukemia) [nM] | GI50 (A549 NSCLC) [nM] | GI50 (MOLT-4 leukemia) [nM] | GI50 (PC-3 prostate) [nM] | GI50 (OVCAR-5 ovarian) [nM]
CN(C)P(=O)(/C(N)=N/Nc1ccc([N+](=O)[O-])cc1)N(C)C | > 100 | > 100 | > 100 | > 100 | > 100 | > 100 | > 100 | > 100 | – | – | – | – | – | – | – | – | – | –
CC(O)C(NC(=O)C(Cc1ccccc1)NC(=O)C(NC(=O)C(CCCCN)NC(=O)C(Cc1c[nH]c2ccccc12)NC(=O)C(Cc1ccc(O)cc1)NC(=O)C(Cc1ccc(Cl)cc1)NC(=O)C(N)Cc1ccccc1)C(C)O)C(N)=O (stereo unspecified) (H-F[Phe(4-Cl)]YWKTFT-NH2; configuration not given here) | 39.5 | 28.9 | 59.5 | 29.3 | 36 | 62.2 | > 100 | – | – | – | – | – | – | – | – | – | – | –
CC(C)=CCC/C(=C/CC/C(C)=C/CCc1ccoc1)C(=O)O | – | > 100 | > 100 | > 100 | > 100 | > 100 | – | > 100 | – | – | – | – | – | – | – | – | – | –
Cc1ccccc1N(CCC#N)C1=NN(C(=O)CC(=O)Nc2ccccc2)C(c2ccccc2)C1 (stereo unspecified) | – | > 100 | > 100 | > 100 | > 100 | > 100 | > 100 | > 100 | – | – | – | – | – | – | – | – | – | –
COC(=O)C1=NC(=S)NC(c2ccccc2)C1c1nc2ccccc2s1 (stereo unspecified) | > 100 | – | > 100 | > 100 | > 100 | > 100 | > 100 | – | – | – | – | – | – | – | – | – | – | –
CCOC(=O)NC(=O)c1cn(CCOCCOC(=O)NCCCCCCNC(=O)OCCOCCn2cc(C(=O)NC(=O)OCC)c(=O)[nH]c2=O)c(=O)[nH]c1=O | – | > 100 | > 100 | – | > 100 | – | > 100 | > 100 | – | – | – | – | – | – | – | – | – | –
COc1cc2oc(-c3ccc(O)cc3)cc(=O)c2c(OC)c1OC | > 100 | > 100 | – | > 100 | > 100 | > 100 | – | > 100 | > 100 | > 100 | – | – | – | – | – | – | – | –
CCN(CC)c1ccc(C(=N)c2ccc(N(CC)CC)cc2)cc1 | 5.85 | 1.67 | – | 9.3 | 5.94 | 4.36 | – | 6.07 | 1.73 | 4.76 | 588 | 255 | 311 | 741 | 625 | 594 | 492 | 1530
COC(=O)C(=O)C(C(=O)C(=O)Nc1ccccc1C(N)=O)c1nc2ccc(Cl)cc2[nH]c1=O (stereo unspecified) | > 100 | > 100 | – | > 100 | > 100 | > 100 | – | > 100 | > 100 | > 100 | – | – | – | – | – | – | – | –
O=C(N/N=C/c1cccc(O)c1O)c1ccccc1 | 16.5 | > 100 | – | > 59.7 | > 100 | > 39.2 | – | > 100 | > 100 | > 100 | 519 | 1290 | 2650 | 244 | 2010 | 362 | 725 | 3710
CC1=C(C)CC2(CCCCC2=O)S(=O)C1 (stereo unspecified) | – | > 100 | > 100 | > 100 | > 100 | > 100 | > 100 | > 100 | – | – | – | – | – | – | – | – | – | –
CN(C)CC/C(=N\Nc1c(Cl)cccc1Cl)c1ccccc1 | – | 52.3 | > 100 | 79.3 | > 100 | 71.7 | 31.8 | 35.7 | – | – | – | – | – | – | – | – | – | –
